Article PMC8547461, “An Intracellular Sensing and Signal Transduction System That Regulates the Metabolism of Polycyclic Aromatic Hydrocarbons in Bacteria” (mSystems, 2021)
“And” between values parts separate entries of the source, which are not always exact repeats. Equal values may be shown once. Read-outs that look alike come from different tables or passages of the source. Blank lines part the entries; values can stand above or below the molecule they belong to.

Assays:
[1] = molecular target: DPR-1; test: SPR (Biacore T200) with DPR-1, DPR-2 or their quadruple mutants immobilized on CM5 chips and cyclic nucleotides injected in 20 mM MOPS pH 8.0, 300 mM NaCl, 0.005% P20, 0.1 mg/ml BSA at 30 ul/min; 20 °C in results, 25 °C in methods; 1:1 binding fit (legend: steady-state affinity model).; conditions: read-out: affinity constant (KD); n = 3
Protocol: (§3) The interactions between DPR and secondary message molecules, including c-di-GMP, c-di-AMP, and cyclic AMP (cAMP), were examined using SPR assays.
(§4) SPR data for the binding of c-di-GMP to DPR-1 or DPR-2 (A) and DPR-1^L93A/D94A/T101A/L102A or DPR-2^L91A/D92A/T99A/L100A (B). […] The values of the affinity constant (KD) were calculated by global fitting, using a steady-state affinity model. Data were representatives of three independent experiments.
(§5) The values of the affinity constant (KD) were calculated by global fitting, using a steady-state affinity model. Data were representative of three independent experiments.
(§6) To reconfirm this binding model, site mutations were introduced into DPR-2 (or DPR-1) at L91/A91, D92/A92, T99/A99, and L100/A100, resulting in a quadruple mutated protein, DPR-2^L91A/D92A/T99A/L100A (or DPR-1^L93A/D94A/T101A/L102A). […]
(§7) We covalently immobilized 50 μg/ml DPR-1 and DPR-2 in 10 mM sodium acetate buffer (pH 5.5) onto separate CM5 sensor chips (GE Healthcare), using standard primary amine coupling procedures. […] After double referencing by subtracting the signal of the reference flow cell and the curve of the buffer injection, KD values for c-di-GMP binding to the DPRs immobilized on the sensor chip surface were calculated using reference points at the end of the association phase. Values were calculated with Biacore T200 evaluation software using a 1:1 binding mode.

[2] = molecular target: DPR-2; test: as above; conditions: read-out: affinity constant (KD); n = 3
Protocol: as §3, §4, §5, §6, §7

[3] = molecular target: DPR-1 (Cycloclasticus sp. P1, UniProt K0C5A9); test: SPR binding of cyclic nucleotides to DPR-1 sensor chip
Sequence of DPR-1 (Cycloclasticus sp. P1, UniProt K0C5A9) (K0C5A9 1-242): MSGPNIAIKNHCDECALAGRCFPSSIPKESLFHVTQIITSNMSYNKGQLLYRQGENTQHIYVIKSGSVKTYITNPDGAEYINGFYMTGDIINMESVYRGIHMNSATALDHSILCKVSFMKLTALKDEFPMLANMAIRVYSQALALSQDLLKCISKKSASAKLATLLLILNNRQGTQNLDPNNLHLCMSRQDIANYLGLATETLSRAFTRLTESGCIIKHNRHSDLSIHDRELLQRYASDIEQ

[4] = molecular target: DPR-2 (Cycloclasticus sp. P1, UniProt K0C733); test: SPR binding of cyclic nucleotides to DPR-2 sensor chip; conditions: for Ka: DPR-2
Sequence of DPR-2 (Cycloclasticus sp. P1, UniProt K0C733) (K0C733 1-238): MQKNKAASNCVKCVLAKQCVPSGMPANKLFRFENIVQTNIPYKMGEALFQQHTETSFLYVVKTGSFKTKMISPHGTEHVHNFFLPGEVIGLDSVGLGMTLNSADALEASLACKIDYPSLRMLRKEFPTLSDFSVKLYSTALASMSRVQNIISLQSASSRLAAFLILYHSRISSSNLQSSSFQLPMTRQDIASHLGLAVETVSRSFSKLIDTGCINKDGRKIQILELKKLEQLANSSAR

[5] = tested on: DPR-1; test: Expression of dpr-1 in wild-type P1 (real-time PCR); conditions: wild-type strain P1 grown on PAH, control sodium acetate
Protocol: Cycloclasticus sp. strain P1 and mutant strain PARP1 were grown in 200 ml of MMC medium containing the appropriate antibiotics, with sodium acetate or PAHs as the carbon source, in 500 ml Erlenmeyer flasks at 28°C on a rotary shaker (200 rpm). Bacterial growth was monitored based on optical density (OD600). Total RNA was extracted using the RNeasy minikit (Qiagen, Valencia, CA, USA) according to the manufacturer’s protocols and subsequently treated with DNase I (Invitrogen, Carlsbad, CA, USA). The RNA yield was estimated using a NanoDrop UV spectrometer (Thermo Scientific, Wilmington, DE, USA). Approximately 4 μg of RNA was reverse transcribed using 20 ng of random primers (Invitrogen, Carlsbad, CA, USA) and PrimeScript reverse transcriptase (TaKaRa, Dalian, China). Control reactions were performed in the absence of reverse transcriptase to verify the absence of genomic DNA. To calculate the number of viable bacteria present, 16S rRNA gene copy numbers were determined using quantitative real-time PCR.
Quantitative real-time PCRs were performed using IQ SYBR green Supermix and the IQ5 multicolor real-time PCR detection system (Bio-Rad, CA, USA). The reactions were performed in 96-well optical plates sealed with optical caps. […] Fluorescence data were acquired at the end of the elongation step. […]
The samples were quantified using a calibration curve that was generated in parallel. A standard quantification curve was generated for each of the tested genes based on a serial dilution of a known amount of target DNA (from 10 to 10^6 copies) utilizing the optimal PCR conditions described above. […] Based on the calibration curve (determined using IQ^5 multicolor real-time PCR detection system software), the initial copy number of each target mRNA was calculated for each sample. The calculated values were normalized to the expression of the 16S rRNA gene to yield the number of copies of each mRNA transcript in 1,000 wild-type Cycloclasticus sp. strain P1 or mutant cells.

[6] = molecular target: T1, PdgC (Cycloclasticus sp. P1, UniProt K0C005); parameters: method as in PMID 30171002; conditions: in the presence of PAH; cited from earlier work
T1 sequence (K0C005 1-445): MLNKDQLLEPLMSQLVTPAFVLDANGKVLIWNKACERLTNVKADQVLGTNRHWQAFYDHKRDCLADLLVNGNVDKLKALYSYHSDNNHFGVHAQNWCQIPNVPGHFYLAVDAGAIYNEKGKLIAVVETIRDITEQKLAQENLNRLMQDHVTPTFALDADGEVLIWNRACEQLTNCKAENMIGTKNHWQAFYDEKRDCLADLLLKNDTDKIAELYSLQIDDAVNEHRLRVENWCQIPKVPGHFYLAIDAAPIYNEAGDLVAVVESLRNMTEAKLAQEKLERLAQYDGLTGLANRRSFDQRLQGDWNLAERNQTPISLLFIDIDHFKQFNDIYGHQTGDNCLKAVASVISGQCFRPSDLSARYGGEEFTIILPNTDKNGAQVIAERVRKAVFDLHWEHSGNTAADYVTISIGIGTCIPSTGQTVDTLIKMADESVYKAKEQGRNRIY

[7] = tested on: wild-type Cycloclasticus sp. strain P1; test: Intracellular c-di-GMP quantification (HPLC-MS/MS), wild type; type: cell-based; conditions: for intracellular concentration of c-di-GMP vs PAH-absent control: wild-type strain P1, after exposure to PAH, 48 h
Protocol: Intracellular c-di-GMP levels were determined using high-performance liquid chromatography tandem mass spectrometry (HPLC-MS/MS), as previously described ([66]), with the following modifications. Strain P1 cells, obtained from OD-adjusted overnight precultures, were inoculated onto various PAH substrates and grown for 48 h in triplicate. Bacterial pellets were resuspended in 0.2% ice-cold formaldehyde at a concentration of 300 mg wet weight/ml, incubated on ice for 10 min, and then centrifuged at 10,000 × g for 15 min. Each pellet was then resuspended in […] of H2O. After extracting nucleotides using ethanol extraction ([67]), samples were dried under a vacuum, reconstituted in […] of H2O via vigorous vortexing and sonication for 5 min, and finally centrifuged for 15 min at 10,000 × g. The supernatants were analyzed at 55°C using an Agilent 1200 HPLC system with a C18 ACE 3 AQ 150- by 2.1-mm column and the corresponding column guard. The mobile phase consisted of 0.1% formic acid run in an H2O-acetonitrile gradient at a flow rate of 300 μl/min, reaching 50% acetonitrile in 15 min. MS analysis was then performed via negative ion electrospray from the Agilent HPLC system into a Bruker HCT Plus ion trap in multiple reaction mode. Using SmartFrag (HyStar software), the trap was set to isolate fragment ions at m/z 688.9 (with a monitored mass range of m/z 450 to 700) from a full scan. Data Analysis v3.3 was used to interrogate the acquisitions, and the extracted ion chromatograms of m/z 538 were produced from the negative-ion MS/MS of m/z 688.9. The retention times and peak spectra were matched to the injected standard (c-di-GMP; Biolog LifeScience Institute, Bremen, Germany) at intervals throughout the run. Peak areas and relative c-di-GMP levels were normalized to the levels obtained with the injected standard. A solution of 1 mg/ml c-di-GMP standard in water was diluted to prepare the spiking solutions with 100 ng/ml, 200 ng/ml, 300 ng/ml, 400 ng/ml, 500 ng/ml, 600 ng/ml, 700 ng/ml, 800 ng/ml, and 900 ng/ml c-di-GMP standard. Extractions and quantifications were all performed in triplicate. The amount of c-di-GMP detected in the blank was subtracted from that detected in the spiked calibrants, and the analysis was calibrated using a linear regression (r^2 = 0.993). To obtain an estimate of c-di-GMP concentration per unit of cellular biomass, the c-di-GMP concentration was divided by the measured OD600 of the original culture.

[8] = tested on: PdgC^L68A/V73A/K77G/I115G; test: SPR binding of PAHs to four-site mutated PdgC sensor chip; parameters: species or system Cycloclasticus sp. strain P1; conditions: four-site mutation PdgC; for Kd: read-out: affinity constant (KD)
Protocol: (§1) The immobilization of the PdgC PAS domain on the sensor surface was carried out as previously described ([68]). Briefly, PdgC was diluted in 10 mM sodium acetate (pH 5.5) and immobilized on a CM5 sensor chip using the amine coupling method by following the manufacturer’s protocol. SPR measurements were performed using a Biacore T200 system (GE Healthcare, Sweden).
(§2) PAH compounds were diluted in running buffer (phosphate-buffered saline [PBS] containing 5% DMSO) to a concentration of 50 μM. Running buffer alone (PBS containing 5% DMSO, without PAHs) served as the negative control. All solutions were then injected into the PdgC sensor surface for 120 s at a flow rate of 30 μl/min. Sensograms of these PAHs were recorded and analyzed. Analytes were injected through the reference and active channels at a flow rate of 30 μl/min. The association and dissociation times were both 120 s. Affinity fitting (determination of the affinity constant, KD) was performed using Biacore T200 evaluation software with a 1:1 binding mode.

[9] = molecular target: T1, PdgC; test: SPR binding of PAHs to PdgC sensor chip; parameters: species or system Cycloclasticus sp. strain P1; conditions: wild-type PdgC; for Kd: 20°C, read-out: affinity constant (KD)
Protocol: as §1
as §2, with “Analytes were injected through the reference and active channels at a flow rate of 30 μl/min.” left out

[10] = tested on: DPR-2; test: Expression of dpr-2 in wild-type P1 (real-time PCR); conditions: wild-type strain P1 grown on PAH, control sodium acetate
Protocol: Cycloclasticus sp. strain P1 and mutant strain PARP1 were grown in 200 ml of MMC medium containing the appropriate antibiotics, with sodium acetate or PAHs as the carbon source, in 500 ml Erlenmeyer flasks at 28°C on a rotary shaker (200 rpm). Bacterial growth was monitored based on optical density (OD600). Total RNA was extracted using the RNeasy minikit (Qiagen, Valencia, CA, USA) according to the manufacturer’s protocols and subsequently treated with DNase I (Invitrogen, Carlsbad, CA, USA). The RNA yield was estimated using a NanoDrop UV spectrometer (Thermo Scientific, Wilmington, DE, USA). […] To calculate the number of viable bacteria present, 16S rRNA gene copy numbers were determined using quantitative real-time PCR.
Quantitative real-time PCRs were performed using IQ SYBR green Supermix and the IQ5 multicolor real-time PCR detection system (Bio-Rad, CA, USA). […] Fluorescence data were acquired at the end of the elongation step. […]
The samples were quantified using a calibration curve that was generated in parallel. A standard quantification curve was generated for each of the tested genes based on a serial dilution of a known amount of target DNA (from 10 to 10^6 copies) utilizing the optimal PCR conditions described above. […]

[11] = molecular target: T1, PdgC; test: PdgC enzymatic activity assay (Enzchek pyrophosphate assay); conditions: PAH 2 μM, inorganic pyrophosphate assay
Protocol: Assays were performed using the Enzchek pyrophosphate assay kit (Invitrogen). […] In addition, the pyrophosphatase in the kit was replaced by 0.4 U/ml pyrophosphatase (Sigma). […] The accumulation of phosphate was monitored over time at OD360.

[12] = tested on: DPR-1 (Cycloclasticus sp. strain P1); test: SPR; conditions: biotin-DNA on streptavidin chip, DPR 0-100 nM, with or without 80 nM c-di-GMP, 25 C, 30 ul/min, 150 s association/150 s dissociation, 1:1 fit, buffer …
[13] = tested on: DPR-2 (Cycloclasticus sp. strain P1); test: SPR; conditions: biotin-DNA on streptavidin chip, DPR 0-100 nM, with or without 80 nM c-di-GMP, 25 C, 30 ul/min, 150 s association/150 s dissociation, 1:1 fit, buffer …
[14] = no c-di-GMP, value order assumed as in Fig. 7 legend

Kd [1]: 4100 nM
Kd [2]: 2600 nM
Molecule: Nc1ncnc2c1ncn2[C@@H]1O[C@@H]2COP(=O)(O)O[C@H]3[C@@H](O)[C@H](n4cnc5c(N)ncnc54)O[C@@H]3COP(=O)(O)O[C@H]2[C@H]1O [c-di-AMP, cyclic dimeric AMP]

Ka ([3]; DPR-1): 6.58e3 M^-1S^-1
Kd ([3]; DPR-1): 2.73e-2 S^-1
Ka [4]: 6.16e3 M^-1S^-1
Molecule: Nc1ncnc2c1ncn2[C@@H]1O[C@@H]2COP(=O)(O)O[C@H]3[C@@H](O)[C@H](n4cnc5c(N)ncnc54)O[C@@H]3COP(=O)(O)O[C@H]2[C@H]1O [c-di-AMP]

Ka ([3]; DPR-1): 3.94e5 M^-1S^-1
Kd ([3]; DPR-1): 1.09e-2 S^-1
Ka [4]: 5.41e5 M^-1S^-1
Kd ([4]; affinity constant (KD), DPR-2, 20°C): 40 nM and ~100 nM
Molecule: Nc1nc2c(ncn2C2OC3COP(=O)(O)OC4C(COP(=O)(O)OC3C2O)OC(n2cnc3c(=O)[nH]c(N)nc32)C4O)c(=O)[nH]1 (stereo not shown) [c-di-GMP, cyclic dimeric GMP]

Molecule: Nc1ncnc2c1ncn2[C@@H]1O[C@@H]2COP(=O)(O)O[C@H]2[C@H]1O [cAMP, cyclic AMP]
Ka ([3]; DPR-1): 4.15e3 M^-1S^-1
Kd ([3]; DPR-1): 1.35e-2 S^-1
Kd ([3]; read-out: affinity constant (KD), DPR-1, 20°C): 3300 nM
Ka [4]: 5.33e3 M^-1S^-1
Kd ([4]; read-out: affinity constant (KD), DPR-2, 20°C): 3500 nM

Molecule: c1ccc2ccccc2c1 [naphthalene]
DPR-1 expression [5]: slightly upregulated
pdgC upregulation [6]: 6.5- to 8.0 fold
intracellular concentration of c-di-GMP vs PAH-absent control [7]: 8- to 10 fold
Ka [8]: 7.6e2 M-1S-1
Kd ([8]; listed as Naphthalene): 78000 nM
Kd [8]: ~100000 nM
Ka [9]: 5.51e5 M^-1S^-1
DPR-2 expression [10]: slightly upregulated

Molecule: c1ccc2c(c1)ccc1ccccc12 [phenanthrene]
DPR-1 expression [5]: slightly upregulated
pdgC upregulation [6]: 6.5- to 8.0 fold
intracellular concentration of c-di-GMP vs PAH-absent control [7]: 8- to 10 fold
Kd ([8]; listed as Phenanthrene): 43000 nM
Kd [8]: ~100000 nM
PdgC activity in vitro [11]: active only in the presence of PAHs
Kd [9]: 46 nM
DPR-2 expression [10]: slightly upregulated

Molecule: c1cc2ccc3cccc4ccc(c1)c2c34 [pyrene]
DPR-1 expression [5]: significantly upregulated
pdgC upregulation [6]: 6.5- to 8.0 fold
c-di-GMP production higher than that caused by naphthalene or phenanthrene ([7]; wild-type strain P1): 30 to 35%
intracellular concentration of c-di-GMP vs PAH-absent control [7]: 8- to 10 fold
Kd ([8]; listed as Pyrene): 100000 nM
Kd [8]: ~100000 nM
PdgC activity in vitro [11]: active only in the presence of PAHs
Ka [9]: 4.12e5 M^-1S^-1
Kd [9]: 46 nM

Molecule: PQ91_0869
Kd [12]: 3.3 nM
Kd ([12]; no c-di-GMP): 690 nM

Molecule: PQ91_0870-0877
Kd [12]: 0.62 nM
Kd ([12]; no c-di-GMP, text prints 0.73 x 10^6 M, exponent sign evidently lost): 730 nM

Molecule: PQ91_2220-2218
Kd [13]: 0.59 nM
Kd [13, 14]: 780 nM

Molecule: PQ91_2227-2224
Kd [13]: 0.71 nM
Kd [13, 14]: 620 nM

Molecule: PQ91_2244-2242
Kd [13]: 6.4 nM
Kd [13, 14]: 630 nM
